In patent publication US20230233569A1 (Revolution Medicines, Inc., priority 2020, published 2023):
Like-named read-outs stand apart in the source and are kept apart here.

What was measured:
Capan-1 (K-Ras G12V) = experiment: CellTiter-Glo cell viability assay, 5-day treatment; assay type: cell-based; details: Homo sapiens, CAPAN-1, 120 h
Summary of the method: (§1)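 Compounds were dispensed directly onto seeded cells and incubated for 5 days, then plates were equilibrated to room temperature for about 30 minutes before luminescence reading. Signals were expressed as percent of the mean DMSO control and fitted with a four-parameter logistic curve.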

NCI-H358 (K-Ras G12C) = experiment: as above; assay type: cell-based; details: Homo sapiens, NCI-H358, 120 h
Summary of the method: as §1

KRAS G12C = KRAS G12C (Homo sapiens, UniProt P01116+P62937, G12C); experiment: Disruption of BRAF RBD interaction with Ras (FRET / MOA assay, with Cyclophilin A); assay type: biochemical; details: read-out: KRAS G12C FRET data, IC50
Summary of the method: (§2)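 Cyclophilin A-dependent ternary complex assay. K-Ras loaded with nucleotide; BRAF RBD as effector. Cpd top 30 μM final, 3 h at 25 °C. Readout: TR-FRET ratio, IC50.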

KRAS G12D = KRAS G12D (Homo sapiens, UniProt P01116+P62937, G12D); experiment: as above; assay type: biochemical; details: read-out: KRAS G12D FRET data, IC50
Summary of the method: as §2

KRAS G12S = KRAS G12S (Homo sapiens, UniProt P01116+P62937, G12S); experiment: as above; assay type: biochemical; details: read-out: KRAS G12S FRET data, IC50
Summary of the method: as §2

KRAS G12V = KRAS G12V (Homo sapiens, UniProt P01116+P62937, G12V); experiment: as above; assay type: biochemical; details: KRAS G12V; read-out: KRAS G12V FRET data IC50
Summary of the method: as §2

KRAS G13C = KRAS G13C (Homo sapiens, UniProt P01116+P62937, G13C); experiment: as above; assay type: biochemical; details: read-out: KRAS G13C FRET data, IC50
Summary of the method: as §2

KRAS G13D = KRAS G13D (Homo sapiens, UniProt P01116+P62937, G13D); experiment: as above; assay type: biochemical; details: KRAS G13D; read-out: KRAS G13D FRET data IC50
Summary of the method: as §2

KRAS WT = KRAS WT (Homo sapiens, UniProt P01116+P62937); experiment: as above; assay type: biochemical; details: KRAS WT; read-out: KRAS WT FRET data IC50
Summary of the method: as §2

NRAS G12C = NRAS G12C (Homo sapiens, UniProt P01111+P62937, G12C); experiment: as above; assay type: biochemical; details: NRAS G12C; read-out: NRAS G12C FRET data IC50
KRAS Q61H = KRAS Q61H (Homo sapiens, UniProt P01116+P62937, Q61H); experiment: as above; assay type: biochemical; details: KRAS Q61H; read-out: KRAS Q61H FRET data IC50
Summary of the method: (§3)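 IC50 reflects compound-driven Ras:Cyclophilin A ternary complex displacing BRAF RBD, read as lowered TR-FRET ratio relative to DMSO after Eu anti-His (10 nM) and APC anti-GST (50 nM) detection for 1.5 h. Prior incubation 3 h, 25° C, with 12.5 nM GMPPNP-loaded Ras, 50 nM BRAF RBD, 25 μM Cyclophilin A; top compound 30 μM.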

NRAS Q61K = NRAS Q61K (Homo sapiens, UniProt P01111+P62937, Q61K); experiment: as above; assay type: biochemical; details: NRAS Q61K; read-out: NRAS Q61K FRET data IC50
Summary of the method: as §3

NRAS Q61R = NRAS Q61R (Homo sapiens, UniProt P01111+P62937, Q61R); experiment: as above; assay type: biochemical; details: NRAS Q61R; read-out: NRAS Q61R FRET data IC50
Summary of the method: as §3

NRAS WT = NRAS WT (Homo sapiens, UniProt P01111+P62937); experiment: as above; assay type: biochemical; details: NRAS WT; read-out: NRAS WT FRET data IC50
Summary of the method: as §3

[1] = 5-day treatment, read-out: Capan-1 Cell Viability assay data (K-Ras G12V, IC50)
[2] = 5-day treatment, read-out: H358 Cell Viability assay data (K-Ras G12C, IC50)

KRAS G12S, sequence (P01116 1-169 isoform P01116-2 G12S limits assumed): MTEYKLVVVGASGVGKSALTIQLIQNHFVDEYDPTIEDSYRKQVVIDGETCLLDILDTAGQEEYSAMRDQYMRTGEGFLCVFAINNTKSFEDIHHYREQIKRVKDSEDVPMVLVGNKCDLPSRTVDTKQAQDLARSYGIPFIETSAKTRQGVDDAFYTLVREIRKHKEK
KRAS G12S, sequence (P62937 whole entry): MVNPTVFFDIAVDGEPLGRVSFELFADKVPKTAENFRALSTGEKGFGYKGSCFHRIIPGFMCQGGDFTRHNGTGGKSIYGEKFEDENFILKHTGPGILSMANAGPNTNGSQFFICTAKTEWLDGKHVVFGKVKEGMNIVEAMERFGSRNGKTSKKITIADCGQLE
NRAS Q61K, sequence (P01111 whole entry Q61K): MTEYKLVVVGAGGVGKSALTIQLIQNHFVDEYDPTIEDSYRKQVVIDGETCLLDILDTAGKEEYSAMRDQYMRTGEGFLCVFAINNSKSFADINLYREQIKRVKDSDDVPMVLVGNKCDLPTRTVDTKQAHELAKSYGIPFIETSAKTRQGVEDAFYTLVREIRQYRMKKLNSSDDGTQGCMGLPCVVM
NRAS Q61K, sequence (P62937 whole entry): as the sequence (P62937 whole entry) above
NRAS WT, sequence (P01111 whole entry): as the sequence (P01111 whole entry Q61K) above, with K61Q counted along it
NRAS WT, sequence (P62937 whole entry): as the sequence (P62937 whole entry) above
KRAS G13C, sequence (P01116 1-169 isoform P01116-2 G13C): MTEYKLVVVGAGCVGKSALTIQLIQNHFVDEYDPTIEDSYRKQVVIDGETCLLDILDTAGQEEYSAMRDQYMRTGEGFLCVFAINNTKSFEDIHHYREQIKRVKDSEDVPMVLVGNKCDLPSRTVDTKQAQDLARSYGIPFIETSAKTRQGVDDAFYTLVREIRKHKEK
KRAS G13C, sequence (P62937 whole entry): as the sequence (P62937 whole entry) above
KRAS G12D, sequence (P01116 1-169 isoform P01116-2 G12D limits assumed): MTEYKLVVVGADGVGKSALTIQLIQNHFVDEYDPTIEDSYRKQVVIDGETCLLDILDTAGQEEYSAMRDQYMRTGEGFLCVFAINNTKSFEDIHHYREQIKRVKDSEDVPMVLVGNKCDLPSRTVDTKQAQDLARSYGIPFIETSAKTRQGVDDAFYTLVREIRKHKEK
KRAS G12D, sequence (P62937 whole entry): as the sequence (P62937 whole entry) above
KRAS G13D, sequence (P01116 1-169 isoform P01116-2 G13D limits assumed): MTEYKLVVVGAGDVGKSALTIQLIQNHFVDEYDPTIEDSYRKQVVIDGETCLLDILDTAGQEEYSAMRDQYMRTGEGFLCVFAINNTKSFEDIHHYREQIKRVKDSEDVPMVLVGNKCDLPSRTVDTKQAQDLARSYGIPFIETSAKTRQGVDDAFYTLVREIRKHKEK
KRAS G13D, sequence (P62937 whole entry): as the sequence (P62937 whole entry) above
KRAS G12C, sequence (P01116 1-169 isoform P01116-2 G12C): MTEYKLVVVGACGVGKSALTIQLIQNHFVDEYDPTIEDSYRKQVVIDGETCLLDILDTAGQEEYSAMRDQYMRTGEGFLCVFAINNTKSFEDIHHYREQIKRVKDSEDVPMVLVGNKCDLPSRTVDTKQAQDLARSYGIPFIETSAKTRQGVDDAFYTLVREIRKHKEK
KRAS G12C, sequence (P62937 whole entry): as the sequence (P62937 whole entry) above
KRAS WT, sequence (P01116 1-169 isoform P01116-2 limits assumed): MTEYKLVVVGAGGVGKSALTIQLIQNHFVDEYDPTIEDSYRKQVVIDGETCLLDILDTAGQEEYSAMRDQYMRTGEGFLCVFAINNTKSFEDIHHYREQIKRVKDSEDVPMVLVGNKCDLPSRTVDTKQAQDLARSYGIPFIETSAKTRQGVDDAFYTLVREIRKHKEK
KRAS WT, sequence (P62937 whole entry): as the sequence (P62937 whole entry) above
NRAS Q61R, sequence (P01111 whole entry Q61R): as the sequence (P01111 whole entry Q61K) above, with K61R counted along it
NRAS Q61R, sequence (P62937 whole entry): as the sequence (P62937 whole entry) above
KRAS Q61H, sequence (P01116 1-169 isoform P01116-2 Q61H limits assumed): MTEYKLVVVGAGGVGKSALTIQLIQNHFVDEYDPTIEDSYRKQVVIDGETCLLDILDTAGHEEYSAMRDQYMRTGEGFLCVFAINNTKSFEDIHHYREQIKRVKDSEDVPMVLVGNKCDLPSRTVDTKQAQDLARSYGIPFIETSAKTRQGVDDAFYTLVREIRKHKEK
KRAS Q61H, sequence (P62937 whole entry): as the sequence (P62937 whole entry) above
NRAS G12C, sequence (P01111 whole entry G12C): as the sequence (P01111 whole entry Q61K) above, with G12C, K61Q counted along it
NRAS G12C, sequence (P62937 whole entry): as the sequence (P62937 whole entry) above
KRAS G12V, sequence (P01116 1-169 isoform P01116-2 G12V limits assumed): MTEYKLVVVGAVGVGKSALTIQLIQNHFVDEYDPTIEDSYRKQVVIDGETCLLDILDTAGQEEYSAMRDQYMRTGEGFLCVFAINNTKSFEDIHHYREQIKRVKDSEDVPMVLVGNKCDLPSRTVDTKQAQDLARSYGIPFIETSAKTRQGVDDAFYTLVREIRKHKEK
KRAS G12V, sequence (P62937 whole entry): as the sequence (P62937 whole entry) above

Row | IC50 (NCI-H358 (K-Ras G12C); [2]) [µM] | IC50 (KRAS G12C) [nM] | IC50 (KRAS G12D) [nM] | IC50 (KRAS G12S) [nM] | IC50 (KRAS G12V) [nM] | IC50 (KRAS G13C) [nM] | IC50 (KRAS G13D) [nM] | IC50 (KRAS WT) [nM] | IC50 (NRAS G12C) [nM] | IC50 (KRAS Q61H) [nM] | IC50 (NRAS Q61K) [nM] | IC50 (NRAS Q61R) [nM] | IC50 (NRAS WT) [nM] | Structure (SMILES) | IC50 (Capan-1 (K-Ras G12V); [1]) [µM] | IC50 (Capan-1 (K-Ras G12V); read-out: Capan-1 Cell Viability assay data (K-Ras G12V, IC50, uM)) [µM] | IC50 (NCI-H358 (K-Ras G12C); read-out: H358 Cell Viability assay data (K-Ras G12C, IC50, uM), 5-day treatment) [µM]
1 | 0.1 to 1 | 100 to 1000 | 1000 to 10000 | 1000 to 10000 | 1000 to 10000 | 1000 to 10000 | 1000 to 10000 | 100 to 1000 | 100 to 1000 | 100 to 1000 | 100 to 1000 | 100 to 1000 | 100 to 1000 | CCn1c(-c2cccnc2[C@H](C)OC)c2c3cc(ccc31)-c1csc(n1)C[C@H](NC(=O)[C@H](C(C)C)N(C)C(=O)N1C[C@H](C)N(C)C[C@@H]1C)C(=O)N1CCC[C@H](N1)C(=O)OCC(C)(C)C2 [Example A283] | 0.1 to 1 |  | 
2 | 0.01 to 0.1 | 100 to 1000 | 100 to 1000 | 100 to 1000 | 100 to 1000 | 100 to 1000 | 100 to 1000 | 100 to 1000 | 100 to 1000 | 100 to 1000 | 100 to 1000 | 100 to 1000 | 100 to 1000 | CCn1c(-c2cccnc2[C@H](C)OC)c2c3cc(ccc31)-c1csc(n1)C[C@H](NC(=O)[C@H]1C[C@@H]1C)C(=O)N1CCC[C@H](N1)C(=O)OCC(C)(C)C2 [Example A286, (1S,2S)—N-((6^3S,4S,Z)-1^1-ethyl-1^2-(2-((S)-1-methoxyethyl)pyridin-3-yl)-10,10-dimethyl-5,7-dioxo-6^1,6^2,6^3,6^4,6^5,6^6-hexahydro-1^1H-8-oxa-2(4,2)-thiazola-1(5,3)-indola-6(1,3)-pyridazinacycloundecaphane-4-yl)-2-methylcyclopropane-1-carboxamide] | 0.1 to 1 |  | 
3 | 0.1 to 1 | 100 to 1000 | 100 to 1000 | 100 to 1000 | 100 to 1000 | 100 to 1000 | 100 to 1000 | 10 to 100 | 100 to 1000 | 10 to 100 | 100 to 1000 | 100 to 1000 | 10 to 100 | CCn1c(-c2cccnc2[C@H](C)OC)c2c3cc(ccc31)-c1cc(O)cc(c1)C[C@H](NC(=O)[C@H](C(C)C)N(C)C(=O)[C@H]1C[C@@H]1C)C(=O)N1CCC[C@H](N1)C(=O)OCC(C)(C)C2 [Example A287] | 0.1 to 1 |  | 

The remaining lines, values behind:

Row | Structure (SMILES) | IC50 (NCI-H358 (K-Ras G12C); [2]) [µM] | IC50 (KRAS G12C) [nM] | IC50 (KRAS G12D) [nM] | IC50 (KRAS G12S) [nM] | IC50 (KRAS G12V) [nM] | IC50 (KRAS G13C) [nM] | IC50 (KRAS G13D) [nM] | IC50 (KRAS WT) [nM] | IC50 (NRAS G12C) [nM] | IC50 (KRAS Q61H) [nM] | IC50 (NRAS Q61K) [nM] | IC50 (NRAS Q61R) [nM] | IC50 (NRAS WT) [nM] | IC50 (Capan-1 (K-Ras G12V); [1]) [µM] | IC50 (Capan-1 (K-Ras G12V); read-out: Capan-1 Cell Viability assay data (K-Ras G12V, IC50, uM)) [µM] | IC50 (NCI-H358 (K-Ras G12C); read-out: H358 Cell Viability assay data (K-Ras G12C, IC50, uM), 5-day treatment) [µM]
4 | CCn1c(-c2cccnc2[C@H](C)OC)c2c3cc(ccc31)-c1csc(n1)C[C@H](NC(=O)[C@H](C(C)C)N(C)C(=O)N1CC[C@@H]1C(=O)NC)C(=O)N1CCC[C@H](N1)C(=O)OCC(C)(C)C2 [Example A281] | 0.1 to 1 | 1000 to 10000 | > 10000 | 1000 to 10000 | 1000 to 10000 | 1000 to 10000 | 1000 to 10000 | 1000 to 10000 | 1000 to 10000 | 100 to 1000 | 100 to 1000 | 1000 to 10000 | 1000 to 10000 | 0.1 to 1 |  | 
5 | CCn1c(-c2cccnc2[C@H](C)OC)c2c3cc(ccc31)-c1csc(n1)C[C@H](NC(=O)[C@H](C(C)C)N(C)C(=O)N1CC[C@H]1C(=O)NC)C(=O)N1CC(C)C[C@H](N1)C(=O)OCC(C)(C)C2 (stereo partly drawn) [Example A282] | 0.1 to 1 | 100 to 1000 | 1000 to 10000 | 1000 to 10000 | 1000 to 10000 | 1000 to 10000 | 1000 to 10000 | 1000 to 10000 | 100 to 1000 | 100 to 1000 | 1000 to 10000 | 1000 to 10000 | 1000 to 10000 | 0.1 to 1 |  | 
6 | CCn1c(-c2cccnc2[C@H](C)OC)c2c3cc(ccc31)-c1csc(n1)C[C@H](NC(=O)[C@H](C(C)C)N(C)C(=O)N1CC3CC(C1)N3C)C(=O)N1CCC[C@H](N1)C(=O)OCC(C)(C)C2 [Example A284] |  | 100 to 1000 | 1000 to 10000 | 100 to 1000 | 1000 to 10000 | 100 to 1000 | 100 to 1000 | 100 to 1000 | 100 to 1000 | 100 to 1000 | 100 to 1000 | 1000 to 10000 | 100 to 1000 |  | 0.1 to 1 | 0.1 to 1
